Experimental data from patent publication EP0421935B1, “Insect neuropeptides” (Novartis AG, priority 1989, dated 1999).
Bridge positions count the residues as written; N and C are the ends. Square brackets hold non-standard residues; d marks the D form. Peptide text beside a SMILES is read from it. pGlu = O=C1CC[C@@H](C(=O)O)N1

Tested on: corpora allata which have been surgically removed from newly molted 5 stadium Manduca sexta larvae
Assay: in vitro JH biosynthesis assay (rate of [14C]JH biosynthesis by excised CC/CA complex)
Format: cell-based
Protocol: The biological activity of native LAS and LASA's is tested in an in vitro JH-biosynthesis assay using newly molted 5th stadium Manduca sexta larval CC/CA complex. The biological activity of each of the LAS and LASA preparations made according to the following examples is assayed according to a procedure essentially as described (except for media employed) by Pratt and Tobe, 1974 Life Sci vl4:575-586, which is incorporated by reference. This procedure measures the rate of biosynthesis of Juvenile Hormone (JH) by the corpora allata which have been surgically removed from newly molted 5 stadium Manduca sexta larvae. One corpus cardiacum-corpus allatum complex is maintained in 100 µl of TC-199 medium (components of which are shown below) and Hank's salts, and is shaken using a mechanical shaker. The sample to be tested for LAS-like activity is dried and dissolved in TC-199 medium. Then an equal volume of TC-199 medium containing [^14C] methionine is added, and allowed to incubate for 4 hours. […] is extracted from the medium using iso-octane and the extract is assayed by liquid scintillation counting. The rate of biosynthesis by glands exposed to the sample is compared to the rate observed for control glands. The presence of LAS or LASA causes a decrease in the rate of biosynthesis.

Compound | allatostatin activity in bioassay (crude oxidized synthetic peptide, before reversed phase LC purification) | level of activity (amidated carboxy terminus compared with Native LAS with free carboxy terminus, the test is not given)
CC[C@H](C)[C@@H]1NC(=O)[C@@H]2CCCN2C(=O)[C@H](CC(N)=O)NC(=O)[C@H](Cc2ccccc2)NC(=O)[C@H](Cc2ccc(O)cc2)NC(=O)[C@@H](NC(=O)[C@H](CCC(N)=O)NC(=O)[C@H](CCCNC(=N)N)NC(=O)[C@H](Cc2ccccc2)NC(=O)[C@H](CCCNC(=N)N)NC(=O)[C@@H](NC(=O)[C@@H]2CCC(=O)N2)C(C)C)CSSC[C@@H](C(=O)N[C@@H](Cc2ccccc2)C(=O)O)NC(=O)[C@H](CO)NC1=O [LAS, pGlu-Val-Arg-Phe-Arg-Gln-Cys-Tyr-Phe-Asn-Pro-Ile-Ser-Cys-Phe-OH] ([pGlu]VRFRQCYFNPISCF-OH; disulfide 7-14) | exhibits allatostatin activity | –
CC[C@H](C)[C@@H]1NC(=O)[C@@H]2CCCN2C(=O)[C@H](CC(N)=O)NC(=O)[C@H](Cc2ccccc2)NC(=O)[C@H](Cc2ccc(O)cc2)NC(=O)[C@@H](NC(=O)[C@H](CCC(N)=O)NC(=O)[C@H](CCCNC(=N)N)NC(=O)[C@H](Cc2ccccc2)NC(=O)[C@H](CCCNC(=N)N)NC(=O)[C@@H](NC(=O)[C@@H]2CCC(=O)N2)C(C)C)CSSC[C@@H](C(=O)N[C@@H](Cc2ccccc2)C(N)=O)NC(=O)[C@H](CO)NC1=O [amidated form] ([pGlu]VRFRQCYFNPISCF-NH2; disulfide 7-14) | – | same level of activity
